ChEMBL document CHEMBL3872240, “Simple N,N-dimethyl phenylsulfonamides show potent anticonvulsant effect in two standard epilepsy models” (Bioorg Med Chem Lett, 2017)
Activity calls are given as the source filed them. No cut-off for these calls is given here.

Legend:
Mus musculus [1] = assay: Neurotoxicity in Carworth Farm1 mouse assessed as somnolence up to 100 mg/kg, ip; format: toxicity, organism-based; conditions: in vivo
Mus musculus [2] = assay: Neurotoxicity in Carworth Farm1 mouse assessed as sedation up to 100 mg/kg, ip; format: toxicity, organism-based; conditions: in vivo
Mus musculus [3] = assay: Neurotoxicity in Carworth Farm1 mouse assessed as muscle relaxation up to 100 mg/kg, ip; format: toxicity, organism-based; conditions: in vivo
Mus musculus [4] = assay: Anticonvulsant activity in Carworth Farm1 mouse assessed as protection against maximal electroshock-induced seizures at 50 mg/kg, ip administered 30 mins prior to 60-Hz current induction; format: functional, organism-based
Mus musculus [5] = assay: Anticonvulsant activity in Carworth Farm1 mouse assessed as protection against maximal electroshock-induced seizures at 100 mg/kg, ip administered 30 mins prior to 60-Hz current induction; format: functional, organism-based
Mus musculus [6] = assay: Anticonvulsant activity in Carworth Farm1 mouse assessed as protection against subcutaneous pentylenetetrazole-induced seizures at 400 mg/kg, ip after 30 mins; format: functional, organism-based
Mus musculus [7] = assay: Anticonvulsant activity in Carworth Farm1 mouse assessed as protection against maximal electroshock-induced seizures at 25 mg/kg, ip administered 30 mins prior to 60-Hz current induction; format: functional, organism-based
Mus musculus [8] = assay: Anticonvulsant activity in Carworth Farm1 mouse assessed as protection against subcutaneous pentylenetetrazole-induced seizures at 100 mg/kg, ip after 30 mins; format: functional, organism-based
Mus musculus [9] = assay: Anticonvulsant activity in Carworth Farm1 mouse assessed as protection against maximal electroshock-induced seizures at 50 to 100 mg/kg, ip administered 30 mins prior to 60-Hz current induction; format: functional, organism-based
Mus musculus [10] = assay: Anticonvulsant activity in ip dosed Carworth Farm1 mouse assessed as protection against maximal electroshock-induced seizures administered 30 mins prior to 60-Hz current induction; format: functional
Mus musculus [11] = assay: Anticonvulsant activity in ip dosed Carworth Farm1 mouse assessed as protection against subcutaneous pentylenetetrazole-induced seizures after 30 mins; format: functional; conditions: Carworth Farm1, 0.5 h
[12] = Metabolic stability in rat liver microsomes assessed as amount of parent compound remaining after 30 mins; format: ADME; conditions: read-out: Stability
Mus musculus [13] = assay: Anticonvulsant activity in Carworth Farm1 mouse assessed as protection against maximal electroshock-induced seizures at 100 to 400 mg/kg, ip administered 30 mins prior to 60-Hz current induction; format: functional, organism-based
Mus musculus [14] = assay: Anticonvulsant activity in Carworth Farm1 mouse assessed as protection against maximal electroshock-induced seizures at 400 mg/kg, ip administered 30 mins prior to 60-Hz current induction; format: functional, organism-based

Row | SMILES | Activity (Mus musculus [1]) | Activity (Mus musculus [2]) | Activity (Mus musculus [3]) | Activity (Mus musculus [4]) | Activity (Mus musculus [5]) | further results
1 | CN(C)S(=O)(=O)c1cccc(Br)c1 | Non-Toxic | Non-Toxic | Non-Toxic | Active | Active | –
2 | O=S(=O)(c1cccc(Cl)c1)N1CCCC1 | Non-Toxic | Non-Toxic | Non-Toxic | – | – | –
3 | CNS(=O)(=O)c1cccc(Cl)c1 | Non-Toxic | Non-Toxic | Non-Toxic | Active | Active | Activity (Mus musculus [6]): Active; Activity (Mus musculus [7]): Active
4 | NS(=O)(=O)c1cccc(Cl)c1 | Non-Toxic | Non-Toxic | Non-Toxic | Active | Active | Activity (Mus musculus [7]): Active
5 | CN(C)S(=O)(=O)c1cccc(C(F)(F)F)c1 | Non-Toxic | Non-Toxic | Non-Toxic | – | Active | Activity (Mus musculus [8]): Active
6 | CCNC(=O)C1=C(Cl)c2ccccc2S(=O)(=O)N1C | – | – | – | – | – | Activity (Mus musculus [9]): Active
7 | CN(C)S(=O)(=O)c1cccc(F)c1 | Non-Toxic | Non-Toxic | Non-Toxic | Active | Active | Activity (Mus musculus [8]): Active; Activity (Mus musculus [7]): Active
8 | NS(=O)(=O)Cc1noc2ccccc12 [ZONISAMIDE] | – | – | – | – | – | ED50 (Mus musculus [10]): 20 mg/kg; ED50 (Mus musculus [11]): > 500 mg/kg
9 | CC1(C)O[C@@H]2[C@@H](CO[C@@]3(COS(N)(=O)=O)OC(C)(C)O[C@@H]23)O1 [TOPIRAMATE] | – | – | – | – | – | ED50 (Mus musculus [10]): 33 mg/kg; ED50 (Mus musculus [11]): > 800 mg/kg
10 | CN(C)S(=O)(=O)c1cccc(Oc2ccccc2)c1 | Non-Toxic | Non-Toxic | Non-Toxic | – | – | –
11 | CN(C)S(=O)(=O)c1cc(Cl)cc(Cl)c1 | Non-Toxic | Non-Toxic | Non-Toxic | – | Active | –
12 | CN(C)S(=O)(=O)c1cccc(N)c1 | Non-Toxic | Non-Toxic | Non-Toxic | – | – | –
13 | CN(C)S(=O)(=O)c1cccc(Cl)c1 | Non-Toxic | Non-Toxic | Non-Toxic | Active | Active | ED50 (Mus musculus [10]): 12 mg/kg; ED50 (Mus musculus [11]): 34 mg/kg; Activity (Mus musculus [8]): Active; Activity (Mus musculus [6]): Active; Activity (Mus musculus [7]): Active; remaining at 0.5 h [12]: 95%
14 | CN(C)S(=O)(=O)c1cccc(OC(F)(F)F)c1 | Non-Toxic | Non-Toxic | Non-Toxic | – | Active | –
15 | CN(C)S(=O)(=O)c1cc(Cl)ccc1Cl | Non-Toxic | Non-Toxic | Non-Toxic | – | – | –
16 | CN(C)S(=O)(=O)c1cccc(C#N)c1 | Non-Toxic | Non-Toxic | Non-Toxic | Active | Active | –
17 | CN(CCO)S(=O)(=O)c1cccc(Cl)c1 | Non-Toxic | Non-Toxic | Non-Toxic | – | – | –
18 | CNS(=O)(=O)Cc1cccc(Cl)c1 | Non-Toxic | Non-Toxic | Non-Toxic | – | – | –
19 | CCN(CC)S(=O)(=O)c1cccc(Cl)c1 | Non-Toxic | Non-Toxic | Non-Toxic | Active | Active | Activity (Mus musculus [6]): Active
20 | CN(C)S(=O)(=O)c1ccccc1Cl | Non-Toxic | Non-Toxic | Non-Toxic | Active | Active | Activity (Mus musculus [13]): Active; Activity (Mus musculus [6]): Active; Activity (Mus musculus [14]): Active
21 | CN(C)S(=O)(=O)c1ccc(Cl)cc1 | Non-Toxic | Non-Toxic | Non-Toxic | Active | Active | Activity (Mus musculus [6]): Active; Activity (Mus musculus [7]): Active
22 | CN(C)S(=O)(=O)c1ccc(Cl)c(Cl)c1 | Non-Toxic | Non-Toxic | Non-Toxic | – | Active | –
23 | CCCN(C)S(=O)(=O)c1cccc(Cl)c1 | Non-Toxic | Non-Toxic | Non-Toxic | – | – | –
24 | CN(C)S(=O)(=O)c1ccccc1 | Non-Toxic | Non-Toxic | Non-Toxic | – | Active | –
25 | CN(C)S(=O)(=O)c1cccc([N+](=O)[O-])c1 | Non-Toxic | Non-Toxic | Non-Toxic | – | Active | –
26 | Cc1cccc(S(=O)(=O)N(C)C)c1 | Non-Toxic | Non-Toxic | Non-Toxic | – | – | –
27 | COc1cccc(S(=O)(=O)N(C)C)c1 | Non-Toxic | Non-Toxic | Non-Toxic | – | – | –
